# Measurements as given in US20260070945A1, “MACROCYCLIC IMMUNOMODULATORS” (Bristol-Myers Squibb Company, priority 2022, published 2026).
# pIC50: −log10 of the molar value. Where a SMILES comes first, the peptide text is derived from it. Bridges are numbered along the chain shown (N, C = ends). [ ]: non-standard residue; d: D form. The star is where a group is joined. ξ: configuration not given here. Bip = N[C@@H](Cc1ccc(-c2ccccc2)cc1)C(=O)O; Phe(3-Me) = Cc1cccc(C[C@H](N)C(=O)O)c1; Cyclopropanecarbonyl = O=C(C1CC1)*; Val(3-OH) = CC(C)(O)[C@H](N)C(=O)O; hArg = N=C(N)NCCCC[C@H](N)C(=O)O; 4Pal = N[C@@H](Cc1ccncc1)C(=O)O; Cha = N[C@@H](CC1CCCCC1)C(=O)O; Cit = NC(=O)NCCC[C@H](N)C(=O)O; Ile(3ξ) = CCC(C)[C@H](N)C(=O)O; Thr(3ξ) = CC(O)[C@H](N)C(=O)O; 12Ado = NCCCCCCCCCCCC(=O)O; Carboxymethyl = O=C(O)C*; NMeA = CN[C@@H](C)C(=O)O; Orn = NCCC[C@H](N)C(=O)O; Aun = NCCCCCCCCCCC(=O)O; Dab = NCC[C@H](N)C(=O)O; Dap = NC[C@H](N)C(=O)O; X12 = CC(C)(F)C(=O)*
# Molecular target: T1, PD-1/PD-L1 interaction (PE-labeled human PD-L1-Ig binding to Jurkat cell line over-expressing human PD-1) (Homo sapiens, UniProt Q15116)
# T1 construct: expressed in transfected cells; host or cells: Jurkat
# T1 sequence (Q15116 25-288): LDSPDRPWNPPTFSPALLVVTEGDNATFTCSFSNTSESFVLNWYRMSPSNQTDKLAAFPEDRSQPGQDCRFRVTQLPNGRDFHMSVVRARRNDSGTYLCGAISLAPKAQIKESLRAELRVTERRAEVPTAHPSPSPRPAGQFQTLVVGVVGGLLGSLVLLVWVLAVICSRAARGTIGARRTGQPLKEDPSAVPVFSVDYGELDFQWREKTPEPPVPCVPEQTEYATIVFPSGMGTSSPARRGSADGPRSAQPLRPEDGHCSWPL
# Assay: Jurkat-PD-1 Cell Binding High-Content Screening Assay (CBA)
# Settings: Jurkat-hPD-1 cells, PE-labeled PD-L1-Ig 20 nM final; read-out: Jurkat HPD1 PDL1 IC50
# How it was run: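 Read-out: high-content imaging of cell-bound PE fluorescence, with Hoechst 33342 nuclear counterstain after paraformaldehyde fixation. Before labeled ligand (20 nM final, 1 h) was added, compound sat on the cells for 2 h at 37 °C in DMEM/10% FCS.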
row,SMILES,pIC50
1,Cc1cccc(C[C@@H]2NC(=O)[C@H](CC(=O)O)NC(=O)[C@H](Cc3ccc(OCC(=O)O)cc3)NC(=O)[C@H](C(C)O)NC(=O)CSC[C@@H](C(=O)N[C@@H](CCCN)C(=O)N[C@@H](CO)C(=O)NCCCCCCCCCCCC(=O)O)NC(=O)[C@H](CO)NC(=O)[C@H](C(C)(C)O)NC(=O)[C@H](CC3CCCCC3)NC(=O)[C@H](CCN)NC(=O)[C@@H](CC(C)C)NC(=O)[C@H](C)N(C)C(=O)[C@H](CCCNC(N)=O)NC(=O)[C@H](Cc3ccc(-c4ccccc4)cc3)NC(=O)[C@H](C(C)C)NC2=O)c1 (stereo partly drawn) [Example 2394] ({CH2CO}-[Thr(3ξ)]Y(Carboxymethyl)D[Phe(3-Me)]V[Bip][Cit][NMeA][dL][Dab][Cha][Val(3-OH)]SC[Orn]S[12Ado]-OH; thioether N-14),7.80
2,Cc1cccc(C[C@@H]2NC(=O)[C@H](CC(=O)O)NC(=O)[C@H](Cc3ccc(OCC(=O)O)cc3)NC(=O)[C@H](CCCCNC(=N)N)NC(=O)CSC[C@@H](C(=O)N[C@@H](CCN)C(=O)NCCCCCCCCCCC(=O)O)NC(=O)[C@H](C(C)O)NC(=O)[C@H](C(C)C)NC(=O)[C@H](CC3CCCCC3)NC(=O)[C@H](CCN)NC(=O)[C@@H](CC(C)C)NC(=O)[C@H](C)N(C)C(=O)[C@H](CCCNC(=O)C3CC3)NC(=O)[C@H](Cc3ccc(-c4ccccc4)cc3)NC(=O)[C@H](Cc3ccc(O)cc3)NC2=O)c1 (stereo partly drawn) [Example 2398] ({CH2CO}-[hArg]Y(Carboxymethyl)D[Phe(3-Me)]Y[Bip][Orn](Cyclopropanecarbonyl)[NMeA][dL][Dab][Cha]V[Thr(3ξ)]C[Dab][Aun]-OH; thioether N-14),7.78
3,Cc1cccc(C[C@@H]2NC(=O)[C@H](CC(=O)O)NC(=O)[C@H](Cc3ccc(OCC(=O)O)cc3)NC(=O)[C@H](CCCCNC(=N)N)NC(=O)CSC[C@@H](C(=O)N[C@@H](CCN)C(=O)NCCCCCCCCCCC(=O)O)NC(=O)[C@H](C(C)O)NC(=O)[C@H](C(C)C)NC(=O)[C@H](CC3CCCCC3)NC(=O)[C@H](CCN)NC(=O)[C@@H](CC(C)C)NC(=O)[C@H](C)N(C)C(=O)[C@H](CCCCNC(=O)C3CC3)NC(=O)[C@H](Cc3ccc(-c4ccccc4)cc3)NC(=O)[C@H](Cc3ccc(O)cc3)NC2=O)c1 (stereo partly drawn) [Example 2399] ({CH2CO}-[hArg]Y(Carboxymethyl)D[Phe(3-Me)]Y[Bip]K(Cyclopropanecarbonyl)[NMeA][dL][Dab][Cha]V[Thr(3ξ)]C[Dab][Aun]-OH; thioether N-14),7.85
4,Cc1cccc(C[C@@H]2NC(=O)[C@H](CC(=O)O)NC(=O)[C@H](Cc3ccc(OCC(=O)O)cc3)NC(=O)[C@H](CCCNC(=O)C3CC3)NC(=O)CSC[C@@H](C(=O)N[C@@H](CCN)C(=O)NCCCCCCCCCCC(=O)O)NC(=O)[C@H](C(C)O)NC(=O)[C@H](C(C)C)NC(=O)[C@H](CC3CCCCC3)NC(=O)[C@H](CCN)NC(=O)[C@@H](CC(C)C)NC(=O)[C@H](C)N(C)C(=O)[C@H](CCCNC(N)=O)NC(=O)[C@H](Cc3ccc(-c4ccccc4)cc3)NC(=O)[C@H](Cc3ccc(O)cc3)NC2=O)c1 (stereo partly drawn) [Example 2400] ({CH2CO}-[Orn](Cyclopropanecarbonyl)Y(Carboxymethyl)D[Phe(3-Me)]Y[Bip][Cit][NMeA][dL][Dab][Cha]V[Thr(3ξ)]C[Dab][Aun]-OH; thioether N-14),7.96
5,Cc1cccc(C[C@@H]2NC(=O)[C@H](CC(=O)O)NC(=O)[C@H](Cc3ccc(OCC(=O)O)cc3)NC(=O)[C@H](CCCNC(=O)C(C)(C)F)NC(=O)CSC[C@@H](C(=O)N[C@@H](CCCN)C(=O)N[C@@H](CO)C(=O)NCCCCCCCCCCCC(=O)O)NC(=O)[C@H](C(C)O)NC(=O)[C@H](C(C)C)NC(=O)[C@H](CC3CCCCC3)NC(=O)[C@H](CCN)NC(=O)[C@@H](CC(C)C)NC(=O)[C@H](C)N(C)C(=O)[C@H](CCCNC(N)=O)NC(=O)[C@H](Cc3ccc(-c4ccccc4)cc3)NC(=O)[C@H](Cc3ccc(O)cc3)NC2=O)c1 (stereo partly drawn) [Example 2401] ({CH2CO}-[Orn](X12)Y(Carboxymethyl)D[Phe(3-Me)]Y[Bip][Cit][NMeA][dL][Dab][Cha]V[Thr(3ξ)]C[Orn]S[12Ado]-OH; thioether N-14),7.03
6,Cc1cccc(C[C@@H]2NC(=O)[C@H](CC(=O)O)NC(=O)[C@H](Cc3ccc(OCC(=O)O)cc3)NC(=O)[C@H](CN)NC(=O)CSC[C@@H](C(=O)N[C@@H](CCCN)C(=O)N[C@@H](CO)C(=O)NCCCCCCCCCCCC(=O)O)NC(=O)[C@H](C(C)O)NC(=O)[C@H](C(C)C)NC(=O)[C@H](CC3CCCCC3)NC(=O)[C@H](CCN)NC(=O)[C@@H](CC(C)C)NC(=O)[C@H](C)N(C)C(=O)[C@H](CCCNC(N)=O)NC(=O)[C@H](Cc3ccc(-c4ccccc4)cc3)NC(=O)[C@H](Cc3ccc(O)cc3)NC2=O)c1 (stereo partly drawn) [Example 2402] ({CH2CO}-[Dap]Y(Carboxymethyl)D[Phe(3-Me)]Y[Bip][Cit][NMeA][dL][Dab][Cha]V[Thr(3ξ)]C[Orn]S[12Ado]-OH; thioether N-14),7.29
7,Cc1cccc(C[C@@H]2NC(=O)[C@H](CC(=O)O)NC(=O)[C@H](Cc3ccc(OCC(=O)O)cc3)NC(=O)[C@H](Cc3ccncc3)NC(=O)CSC[C@@H](C(=O)N[C@@H](CCCN)C(=O)N[C@@H](CO)C(=O)NCCCCCCCCCCCC(=O)O)NC(=O)[C@H](C(C)O)NC(=O)[C@H](C(C)C)NC(=O)[C@H](CC3CCCCC3)NC(=O)[C@H](CCN)NC(=O)[C@@H](CC(C)C)NC(=O)[C@H](C)N(C)C(=O)[C@H](CCCNC(=O)C3CC3)NC(=O)[C@H](Cc3ccc(-c4ccccc4)cc3)NC(=O)[C@H](Cc3ccc(O)cc3)NC2=O)c1 (stereo partly drawn) [Example 2403] ({CH2CO}-[4Pal]Y(Carboxymethyl)D[Phe(3-Me)]Y[Bip][Orn](Cyclopropanecarbonyl)[NMeA][dL][Dab][Cha]V[Thr(3ξ)]C[Orn]S[12Ado]-OH; thioether N-14),7.32
8,Cc1cccc(C[C@@H]2NC(=O)[C@H](CC(=O)O)NC(=O)[C@H](Cc3ccc(OCC(=O)O)cc3)NC(=O)[C@H](Cc3ccncc3)NC(=O)CSC[C@@H](C(=O)N[C@@H](CCCN)C(=O)N[C@@H](CO)C(=O)NCCCCCCCCCCCC(=O)O)NC(=O)[C@H](C(C)O)NC(=O)[C@H](C(C)C)NC(=O)[C@H](CC3CCCCC3)NC(=O)[C@H](CCN)NC(=O)[C@@H](CC(C)C)NC(=O)[C@H](C)N(C)C(=O)[C@H](CCCCNC(=O)C3CC3)NC(=O)[C@H](Cc3ccc(-c4ccccc4)cc3)NC(=O)[C@H](Cc3ccc(O)cc3)NC2=O)c1 (stereo partly drawn) [Example 2404] ({CH2CO}-[4Pal]Y(Carboxymethyl)D[Phe(3-Me)]Y[Bip]K(Cyclopropanecarbonyl)[NMeA][dL][Dab][Cha]V[Thr(3ξ)]C[Orn]S[12Ado]-OH; thioether N-14),7.39
9,CC(=O)NCCCC[C@@H]1NC(=O)[C@H](Cc2ccc(-c3ccccc3)cc2)NC(=O)[C@H](C(C)C)NC(=O)[C@H](Cc2c[nH]c3ccccc23)NC(=O)[C@H](CC(=O)O)NC(=O)[C@H](Cc2ccc(OCC(=O)O)cc2)NC(=O)[C@H](C(C)O)NC(=O)CSC[C@@H](C(=O)N[C@@H](CCCN)C(=O)N[C@@H](CO)C(=O)NCCCCCCCCCCCC(=O)O)NC(=O)[C@H](C(C)O)NC(=O)[C@H](C(C)C)NC(=O)[C@H](CC2CCCCC2)NC(=O)[C@H](CCN)NC(=O)[C@@H](CC(C)C)NC(=O)[C@H](C)N(C)C1=O (stereo partly drawn) [Example 2405] ({CH2CO}-[Thr(3ξ)]Y(Carboxymethyl)DWV[Bip]K(Ac)[NMeA][dL][Dab][Cha]V[Thr(3ξ)]C[Orn]S[12Ado]-OH; thioether N-14),7.12
10,CC(=O)NCCCC[C@@H]1NC(=O)[C@H](Cc2ccc(-c3ccccc3)cc2)NC(=O)[C@H](C(C)C)NC(=O)[C@H](Cc2c[nH]c3ccccc23)NC(=O)[C@H](CC(=O)O)NC(=O)[C@H](Cc2ccc(OCC(=O)O)cc2)NC(=O)[C@H](C(C)O)NC(=O)CSC[C@@H](C(=O)N[C@@H](CCCN)C(=O)N[C@@H](CO)C(=O)NCCCCCCCCCCCC(=O)O)NC(=O)[C@H](CCCN)NC(=O)[C@H](C(C)C)NC(=O)[C@H](CC2CCCCC2)NC(=O)[C@H](CCN)NC(=O)[C@@H](CC(C)C)NC(=O)[C@H](C)N(C)C1=O (stereo partly drawn) [Example 2406] ({CH2CO}-[Thr(3ξ)]Y(Carboxymethyl)DWV[Bip]K(Ac)[NMeA][dL][Dab][Cha]V[Orn]C[Orn]S[12Ado]-OH; thioether N-14),6.80
11,CC(=O)NCCCC[C@@H]1NC(=O)[C@H](Cc2ccc(-c3ccccc3)cc2)NC(=O)[C@H](C(C)C)NC(=O)[C@H](Cc2c[nH]c3ccccc23)NC(=O)[C@H](CC(=O)O)NC(=O)[C@H](Cc2ccc(OCC(=O)O)cc2)NC(=O)[C@H](CN)NC(=O)CSC[C@@H](C(=O)N[C@@H](CCCN)C(=O)N[C@@H](CO)C(=O)NCCCCCCCCCCCC(=O)O)NC(=O)[C@H](C(C)O)NC(=O)[C@H](C(C)C)NC(=O)[C@H](CC2CCCCC2)NC(=O)[C@H](CCN)NC(=O)[C@@H](CC(C)C)NC(=O)[C@H](C)N(C)C1=O (stereo partly drawn) [Example 2407] ({CH2CO}-[Dap]Y(Carboxymethyl)DWV[Bip]K(Ac)[NMeA][dL][Dab][Cha]V[Thr(3ξ)]C[Orn]S[12Ado]-OH; thioether N-14),7.18
12,CCC(C)[C@@H]1NC(=O)[C@H](Cc2ccc(-c3ccccc3)cc2)NC(=O)[C@H](C(C)C)NC(=O)[C@H](Cc2c[nH]c3ccccc23)NC(=O)[C@H](CC(=O)O)NC(=O)[C@H](Cc2ccc(OCC(=O)O)cc2)NC(=O)[C@H](C(C)O)NC(=O)CSC[C@@H](C(=O)N[C@@H](CCCN)C(=O)N[C@@H](CO)C(=O)NCCCCCCCCCCCC(=O)O)NC(=O)[C@H](CCCN)NC(=O)[C@H](C(C)C)NC(=O)[C@H](CC2CCCCC2)NC(=O)[C@H](CCN)NC(=O)[C@@H](CC(C)C)NC(=O)[C@H](C)N(C)C1=O (stereo partly drawn) [Example 2408] ({CH2CO}-[Thr(3ξ)]Y(Carboxymethyl)DWV[Bip][Ile(3ξ)][NMeA][dL][Dab][Cha]V[Orn]C[Orn]S[12Ado]-OH; thioether N-14),6.64
